Patent US20260013504A1, “HERBICIDAL MIXTURE, HERBICIDAL COMPOSITION, METHOD, USE, AND KITS FOR CONTROLLING UNDESIRABLE VEGETATION” (ADAMA AGAN LTD., priority 2022, published 2026)

Experiments:
Format in all cases: in vivo
Bromus japonicus = test: Pot experiment, soil treatment, control of Bromus japonicus (fresh weight, Colby); conditions: mixtures: both AIs at these rates, after 35 days
Aegilops tauschii = test: Pot experiment, soil treatment, control of Aegilops tauschii (fresh weight, Colby); conditions: mixtures: both AIs at these rates, after 35 days
Galium aparine = test: Pot experiment, soil treatment, control of Galium aparine (fresh weight, Colby)
Lolium multiflorum Lamk = test: Pot experiment, soil treatment, control of Lolium multiflorum Lamk (fresh weight, Colby); conditions: mixtures: both AIs at these rates, after 35 days
Solanum nigrum = test: Pot experiment (glass greenhouse), soil treatment, control of Solanum nigrum (fresh weight, Colby)
Lithospermum arvense = test: Pot experiment, soil treatment, control of Lithospermum arvense (fresh weight, Colby)
[1] = g ai/ha: pyroxasulfone 11.25, fluorochloridone 31.25, aclonifen 150, diflufenican 14.0625, terbutryn 140.625
[2] = g ai/ha: pyroxasulfone 22.5, fluorochloridone 62.5, aclonifen 300, diflufenican 28.125, terbutryn 281.25
[3] = g ai/ha: pyroxasulfone 45, fluorochloridone 125, aclonifen 600, diflufenican 56.25, terbutryn 562.5
[4] = g ai/ha: pyroxasulfone 90, fluorochloridone 250, aclonifen 1200, diflufenican 112.5, terbutryn 1125
[5] = g ai/ha: pyroxasulfone 180, fluorochloridone 500, aclonifen 2400, diflufenican 225, terbutryn 2250
[6] = g ai/ha: pyroxasulfone 360, fluorochloridone 1000, aclonifen 4800, diflufenican 450, terbutryn 4500

Cn1nc(C(F)(F)F)c(CS(=O)(=O)C2=NOC(C)(C)C2)c1OC(F)F [pyroxasulfone, 3-[(5-difluoromethoxy-1-methyl-3-trifluoromethylpyrazol-4-yl)methylsulfonyl]-4,5-dihydro-5,5-di methyl-1,2-isoxazole]
Measured fresh weight inhibition rate (%) (Bromus japonicus; [1]): 74.2% | Measured fresh weight survival rate (%) - E (Bromus japonicus; [1]): 25.8% | Measured fresh weight inhibition rate (%) (Bromus japonicus; [2]): 88.7% | Measured fresh weight survival rate (%) - E (Bromus japonicus; [2]): 11.3% | Measured fresh weight inhibition rate (%) (Bromus japonicus; [3]): 100.0% | Measured fresh weight survival rate (%) - E (Bromus japonicus; [3]): 0.0% | Measured fresh weight inhibition rate (%) (Bromus japonicus; [4]): 100.0% | Measured fresh weight survival rate (%) - E (Bromus japonicus; [4]): 0.0% | Measured fresh weight inhibition rate (%) (Bromus japonicus; [5]): 100.0% | Measured fresh weight survival rate (%) - E (Bromus japonicus; [5]): 0.0% | Measured fresh weight inhibition rate (%) (Aegilops tauschii; [1]): 4.9% | Measured fresh weight survival rate (%) - E (Aegilops tauschii; [1]): 95.1% | Measured fresh weight inhibition rate (%) (Aegilops tauschii; [2]): 11.6% | Measured fresh weight survival rate (%) - E (Aegilops tauschii; [2]): 88.4% | Measured fresh weight inhibition rate (%) (Aegilops tauschii; [3]): 47.6% | Measured fresh weight survival rate (%) - E (Aegilops tauschii; [3]): 52.4% | Measured fresh weight inhibition rate (%) (Aegilops tauschii; [4]): 50.0% | Measured fresh weight survival rate (%) - E (Aegilops tauschii; [4]): 50.0% | Measured fresh weight inhibition rate (%) (Aegilops tauschii; [5]): 78.7% | Measured fresh weight survival rate (%) - E (Aegilops tauschii; [5]): 21.3% | Measured fresh weight inhibition rate (%) (Aegilops tauschii; [6]): 97.6% | Measured fresh weight survival rate (%) - E (Aegilops tauschii; [6]): 2.4% | Measured fresh weight survival rate (%) - E (Galium aparine; 11.25 g ai/ha): 67.1% | Measured fresh weight survival rate (%) - E (Galium aparine; 22.5 g ai/ha): 21.9% | Measured fresh weight survival rate (%) - E (Galium aparine; 45 g ai/ha): 4.1% | Measured fresh weight survival rate (%) - E (Galium aparine; 90 g ai/ha): 4.1% | Measured fresh weight survival rate (%) - E (Galium aparine; 180 g ai/ha): 0.0% | inhibition at 11.25 g/ha (Galium aparine; Galium aparine, soil, 11.25 g ai/ha, read-out: Measured fresh weight inhibition rate (%)): 32.9% | inhibition at 22.5 g/ha (Galium aparine; Galium aparine, soil, 22.5 g ai/ha, read-out: Measured fresh weight inhibition rate (%)): 78.1% | inhibition at 45 g/ha (Galium aparine; Galium aparine, soil, 45 g ai/ha, read-out: Measured fresh weight inhibition rate (%)): 95.9% | inhibition at 90 g/ha (Galium aparine; Galium aparine, soil, 90 g ai/ha, read-out: Measured fresh weight inhibition rate (%)): 95.9% | inhibition at 180 g/ha (Galium aparine; Galium aparine, soil, 180 g ai/ha, read-out: Measured fresh weight inhibition rate (%)): 100% | Measured fresh weight inhibition rate (%) (Lolium multiflorum Lamk; [1]): 68.2% | Measured fresh weight survival rate (%) - E (Lolium multiflorum Lamk; [1]): 31.8% | Measured fresh weight inhibition rate (%) (Lolium multiflorum Lamk; [2]): 94.8% | Measured fresh weight survival rate (%) - E (Lolium multiflorum Lamk; [2]): 5.2% | Measured fresh weight inhibition rate (%) (Lolium multiflorum Lamk; [3]): 100.0% | Measured fresh weight survival rate (%) - E (Lolium multiflorum Lamk; [3]): 0.0% | Measured fresh weight inhibition rate (%) (Lolium multiflorum Lamk; [4]): 100.0% | Measured fresh weight survival rate (%) - E (Lolium multiflorum Lamk; [4]): 0.0% | Measured fresh weight inhibition rate (%) (Lolium multiflorum Lamk; [5]): 100.0% | Measured fresh weight survival rate (%) - E (Lolium multiflorum Lamk; [5]): 0.0% | Measured fresh weight inhibition rate (%) (Lolium multiflorum Lamk; [6]): 100.0% | Measured fresh weight survival rate (%) - E (Lolium multiflorum Lamk; [6]): 0.0% | Measured fresh weight survival rate (%) - E (Solanum nigrum; 11.25 g ai/ha): 82.4% | Measured fresh weight survival rate (%) - E (Solanum nigrum; 22.5 g ai/ha): 68.2% | Measured fresh weight survival rate (%) - E (Solanum nigrum; 45 g ai/ha): 38.4% | Measured fresh weight survival rate (%) - E (Solanum nigrum; 90 g ai/ha): 8.2% | Measured fresh weight survival rate (%) - E (Solanum nigrum; 180 g ai/ha): 4.7% | inhibition at 22.5 g/ha (Solanum nigrum; Solanum nigrum, soil, read-out: Measured fresh weight inhibition rate (%)): 31.8% | inhibition at 11.25 g/ha (Solanum nigrum; Solanum nigrum, soil, 11.25 g ai/ha, read-out: Measured fresh weight inhibition rate (%)): 17.6% | inhibition at 45 g/ha (Solanum nigrum; Solanum nigrum, soil, 45 g ai/ha, read-out: Measured fresh weight inhibition rate (%)): 61.6% | inhibition at 90 g/ha (Solanum nigrum; Solanum nigrum, soil, 90 g ai/ha, read-out: Measured fresh weight inhibition rate (%)): 91.8% | inhibition at 180 g/ha (Solanum nigrum; Solanum nigrum, soil, 180 g ai/ha, read-out: Measured fresh weight inhibition rate (%)): 95.3% | Measured fresh weight survival rate (%) - E (Lithospermum arvense; 11.25 g ai/ha): 63.8% | Measured fresh weight survival rate (%) - E (Lithospermum arvense; 22.5 g ai/ha): 55.1% | Measured fresh weight survival rate (%) - E (Lithospermum arvense; 45 g ai/ha): 27.5% | Measured fresh weight survival rate (%) - E (Lithospermum arvense; 90 g ai/ha): 21.7% | Measured fresh weight survival rate (%) - E (Lithospermum arvense; 180 g ai/ha): 10.1% | inhibition at 11.25 g/ha (Lithospermum arvense; Buglossoides arvensis, soil, 11.25 g ai/ha, read-out: Measured fresh weight inhibition rate (%)): 36.2% | inhibition at 22.5 g/ha (Lithospermum arvense; Buglossoides arvensis, soil, 22.5 g ai/ha, read-out: Measured fresh weight inhibition rate (%)): 44.9% | inhibition at 45 g/ha (Lithospermum arvense; Buglossoides arvensis, soil, 45 g ai/ha, read-out: Measured fresh weight inhibition rate (%)): 72.5% | inhibition at 90 g/ha (Lithospermum arvense; Buglossoides arvensis, soil, 90 g ai/ha, read-out: Measured fresh weight inhibition rate (%)): 78.3% | inhibition at 180 g/ha (Lithospermum arvense; Buglossoides arvensis, soil, 180 g ai/ha, read-out: Measured fresh weight inhibition rate (%)): 89.9%

CCNc1nc(NC(C)(C)C)nc(SC)n1 [terbutryn, N-(1,1-dimethylethyl)-N′-ethyl-6-(methylthio)-1,3,5-triazine-2,4-diamine]
Measured fresh weight inhibition rate (%) (Bromus japonicus; [1]): 100.0% | Measured fresh weight survival rate (%) - E (Bromus japonicus; [1]): 0.0% | Measured fresh weight inhibition rate (%) (Bromus japonicus; [2]): 100.0% | Measured fresh weight survival rate (%) - E (Bromus japonicus; [2]): 0.0% | Measured fresh weight inhibition rate (%) (Bromus japonicus; [3]): 100.0% | Measured fresh weight survival rate (%) - E (Bromus japonicus; [3]): 0.0% | Measured fresh weight inhibition rate (%) (Bromus japonicus; [4]): 100.0% | Measured fresh weight survival rate (%) - E (Bromus japonicus; [4]): 0.0% | Measured fresh weight inhibition rate (%) (Bromus japonicus; [5]): 100.0% | Measured fresh weight survival rate (%) - E (Bromus japonicus; [5]): 0.0% | Measured fresh weight inhibition rate (%) (Aegilops tauschii; [1]): 8.5% | Measured fresh weight survival rate (%) - E (Aegilops tauschii; [1]): 91.5% | Measured fresh weight inhibition rate (%) (Aegilops tauschii; [2]): 12.8% | Measured fresh weight survival rate (%) - E (Aegilops tauschii; [2]): 87.2% | Measured fresh weight inhibition rate (%) (Aegilops tauschii; [3]): 46.3% | Measured fresh weight survival rate (%) - E (Aegilops tauschii; [3]): 53.7% | Measured fresh weight inhibition rate (%) (Aegilops tauschii; [4]): 97.6% | Measured fresh weight survival rate (%) - E (Aegilops tauschii; [4]): 2.4% | Measured fresh weight inhibition rate (%) (Aegilops tauschii; [5]): 96.3% | Measured fresh weight survival rate (%) - E (Aegilops tauschii; [5]): 3.7% | Measured fresh weight inhibition rate (%) (Aegilops tauschii; [6]): 100.0% | Measured fresh weight survival rate (%) - E (Aegilops tauschii; [6]): 0.0% | Measured fresh weight survival rate (%) - E (Galium aparine; 140.625 g ai/ha): 80.8% | Measured fresh weight survival rate (%) - E (Galium aparine; 281.25 g ai/ha): 53.4% | Measured fresh weight survival rate (%) - E (Galium aparine; 562.5 g ai/ha): 9.6% | Measured fresh weight survival rate (%) - E (Galium aparine; 1125 g ai/ha): 8.2% | Measured fresh weight survival rate (%) - E (Galium aparine; 2250 g ai/ha): 0.0% | inhibition at 140.625 g/ha (Galium aparine; Galium aparine, soil, 140.625 g ai/ha, read-out: Measured fresh weight inhibition rate (%)): 19.2% | inhibition at 281.25 g/ha (Galium aparine; Galium aparine, soil, 281.25 g ai/ha, read-out: Measured fresh weight inhibition rate (%)): 46.6% | inhibition at 562.5 g/ha (Galium aparine; Galium aparine, soil, 562.5 g ai/ha, read-out: Measured fresh weight inhibition rate (%)): 90.4% | inhibition at 1125 g/ha (Galium aparine; Galium aparine, soil, 1125 g ai/ha, read-out: Measured fresh weight inhibition rate (%)): 91.8% | inhibition at 2250 g/ha (Galium aparine; Galium aparine, soil, 2250 g ai/ha, read-out: Measured fresh weight inhibition rate (%)): 100% | Measured fresh weight inhibition rate (%) (Lolium multiflorum Lamk; [1]): 94.3% | Measured fresh weight survival rate (%) - E (Lolium multiflorum Lamk; [1]): 5.7% | Measured fresh weight inhibition rate (%) (Lolium multiflorum Lamk; [2]): 94.8% | Measured fresh weight survival rate (%) - E (Lolium multiflorum Lamk; [2]): 5.2% | Measured fresh weight inhibition rate (%) (Lolium multiflorum Lamk; [3]): 100.0% | Measured fresh weight survival rate (%) - E (Lolium multiflorum Lamk; [3]): 0.0% | Measured fresh weight inhibition rate (%) (Lolium multiflorum Lamk; [4]): 100.0% | Measured fresh weight survival rate (%) - E (Lolium multiflorum Lamk; [4]): 0.0% | Measured fresh weight inhibition rate (%) (Lolium multiflorum Lamk; [5]): 100.0% | Measured fresh weight survival rate (%) - E (Lolium multiflorum Lamk; [5]): 0.0% | Measured fresh weight inhibition rate (%) (Lolium multiflorum Lamk; [6]): 100.0% | Measured fresh weight survival rate (%) - E (Lolium multiflorum Lamk; [6]): 0.0% | Measured fresh weight survival rate (%) - E (Solanum nigrum; 140.625 g ai/ha): 57.6% | Measured fresh weight survival rate (%) - E (Solanum nigrum; 281.25 g ai/ha): 36.1% | Measured fresh weight survival rate (%) - E (Solanum nigrum; 562.5 g ai/ha): 0.4% | Measured fresh weight survival rate (%) - E (Solanum nigrum; 1125 g ai/ha): 0.0% | Measured fresh weight survival rate (%) - E (Solanum nigrum; 2250 g ai/ha): 0.0% | inhibition at 140.625 g/ha (Solanum nigrum; Solanum nigrum, soil, 140.625 g ai/ha, read-out: Measured fresh weight inhibition rate (%)): 42.4% | inhibition at 281.25 g/ha (Solanum nigrum; Solanum nigrum, soil, 281.25 g ai/ha, read-out: Measured fresh weight inhibition rate (%)): 63.9% | inhibition at 562.5 g/ha (Solanum nigrum; Solanum nigrum, soil, 562.5 g ai/ha, read-out: Measured fresh weight inhibition rate (%)): 99.6% | inhibition at 1125 g/ha (Solanum nigrum; Solanum nigrum, soil, 1125 g ai/ha, read-out: Measured fresh weight inhibition rate (%)): 100% | inhibition at 2250 g/ha (Solanum nigrum; Solanum nigrum, soil, 2250 g ai/ha, read-out: Measured fresh weight inhibition rate (%)): 100% | Measured fresh weight survival rate (%) - E (Lithospermum arvense; 140.625 g ai/ha): 1.4% | Measured fresh weight survival rate (%) - E (Lithospermum arvense; 281.25 g ai/ha): 1.4% | Measured fresh weight survival rate (%) - E (Lithospermum arvense; 562.5 g ai/ha): 0.0% | Measured fresh weight survival rate (%) - E (Lithospermum arvense; 1125 g ai/ha): 0.0% | Measured fresh weight survival rate (%) - E (Lithospermum arvense; 2250 g ai/ha): 0.0% | inhibition at 140.625 g/ha (Lithospermum arvense; Buglossoides arvensis, soil, 140.625 g ai/ha, read-out: Measured fresh weight inhibition rate (%)): 98.6% | inhibition at 281.25 g/ha (Lithospermum arvense; Buglossoides arvensis, soil, 281.25 g ai/ha, read-out: Measured fresh weight inhibition rate (%)): 98.6% | inhibition at 562.5 g/ha (Lithospermum arvense; Buglossoides arvensis, soil, 562.5 g ai/ha, read-out: Measured fresh weight inhibition rate (%)): 100% | inhibition at 1125 g/ha (Lithospermum arvense; Buglossoides arvensis, soil, 1125 g ai/ha, read-out: Measured fresh weight inhibition rate (%)): 100% | inhibition at 2250 g/ha (Lithospermum arvense; Buglossoides arvensis, soil, 2250 g ai/ha, read-out: Measured fresh weight inhibition rate (%)): 100%
